ChEMBL document CHEMBL1151757, “Synthesis, radiosynthesis, and biological evaluation of fluorine-18-labeled 2beta-carbo(fluoroalkoxy)-3beta-(3'-((Z)-2-haloethenyl)phenyl)nortropanes: candidate radioligands for in vivo imaging of the serotonin transporter with positron emission tomography” (J Med Chem, 2008)

Tests used:
Putamen [1] = assay: Drug uptake in anesthetized cynomolgus monkey brain putamen after 85 mins postinjection; type: ADME, organism-based, Macaca fascicularis; design: unit not given here; settings: in vivo
Medulla [2] = assay: Drug uptake in anesthetized cynomolgus monkey brain medulla after 1.5 mins postinjection; type: ADME, organism-based, Macaca fascicularis; settings: in vivo, 0.025 h
[3] = Drug uptake in anesthetized cynomolgus monkey brain cerebellum after 155 mins postinjection; type: ADME, organism-based, Macaca fascicularis; settings: in vivo
Medulla [4] = assay: Drug uptake in anesthetized cynomolgus monkey brain medulla after 215 mins postinjection; type: ADME, organism-based, Macaca fascicularis; settings: in vivo
[5] = Ratio of drug uptake in caudate to cerebellum in anesthetized cynomolgus monkey after 225 mins postinjection; type: ADME, organism-based, Macaca fascicularis; settings: in vivo, 3.75 h
Caudate [6] = assay: Drug uptake in anesthetized cynomolgus monkey brain caudate after 165 mins postinjection; type: ADME, organism-based, Macaca fascicularis, Caudate nucleus; settings: in vivo, 2.75 h
Thalamus [7] = assay: Drug uptake in anesthetized cynomolgus monkey brain thalamus after 12.5 mins postinjection; type: ADME, organism-based, Macaca fascicularis; design: unit not given here; settings: in vivo
[8] = Ratio of drug uptake in putamen to cerebellum in anesthetized cynomolgus monkey after 235 mins postinjection; type: ADME, organism-based, Macaca fascicularis; settings: in vivo
[9] = Drug uptake in anesthetized cynomolgus monkey brain occipital lobe after 225 mins postinjection; type: ADME, organism-based, Macaca fascicularis; settings: in vivo, 3.75 h
Medulla [10] = assay: Drug uptake in anesthetized cynomolgus monkey brain medulla after 6.5 mins postinjection; type: ADME, organism-based, Macaca fascicularis; settings: in vivo
[11] = Ratio of drug uptake in caudate to cerebellum in anesthetized cynomolgus monkey after 95 mins postinjection; type: ADME, organism-based, Macaca fascicularis; settings: in vivo
Thalamus [12] = assay: Drug uptake in anesthetized cynomolgus monkey brain thalamus after 6.5 mins postinjection; type: ADME, organism-based, Macaca fascicularis; design: unit not given here; settings: in vivo
[13] = Drug uptake in anesthetized cynomolgus monkey brain cerebellum after 27.5 mins postinjection; type: ADME, organism-based, Macaca fascicularis; settings: in vivo
Pons [14] = assay: Drug uptake in anesthetized cynomolgus monkey brain pons after 18.5 mins postinjection; type: ADME, organism-based, Macaca fascicularis; settings: in vivo
[15] = Drug uptake in anesthetized cynomolgus monkey brain occipital lobe after 45 mins postinjection; type: ADME, organism-based, Macaca fascicularis; settings: in vivo, 0.75 h
Caudate [16] = assay: Drug uptake in anesthetized cynomolgus monkey brain caudate after 105 mins postinjection; type: ADME, organism-based, Macaca fascicularis, Caudate nucleus; settings: in vivo, 1.75 h
Medulla [17] = assay: Drug uptake in anesthetized cynomolgus monkey brain medulla after 75 mins postinjection; type: ADME, organism-based, Macaca fascicularis; settings: in vivo, 1.25 h
Medulla [18] = assay: Drug uptake in anesthetized cynomolgus monkey brain medulla after 65 mins postinjection; type: ADME, organism-based, Macaca fascicularis; settings: in vivo
Putamen [19] = assay: Drug uptake in anesthetized cynomolgus monkey brain putamen after 135 mins postinjection; type: ADME, organism-based, Macaca fascicularis; settings: in vivo, 2.25 h
Thalamus [20] = assay: Drug uptake in anesthetized cynomolgus monkey brain thalamus after 0.5 mins postinjection; type: ADME, organism-based, Macaca fascicularis; settings: in vivo
[21] = Drug uptake in anesthetized cynomolgus monkey brain frontal lobe after 0.5 mins postinjection; type: ADME, organism-based, Macaca fascicularis; settings: in vivo
[22] = Drug uptake in anesthetized cynomolgus monkey brain occipital lobe after 1.5 mins postinjection; type: ADME, organism-based, Macaca fascicularis; settings: in vivo, 0.025 h
Thalamus [23] = assay: Drug uptake in anesthetized cynomolgus monkey brain thalamus after 215 mins postinjection; type: ADME, organism-based, Macaca fascicularis; design: unit not given here; settings: in vivo
[24] = Drug uptake in anesthetized cynomolgus monkey brain occipital lobe after 2.5 mins postinjection; type: ADME, organism-based, Macaca fascicularis; settings: in vivo
Pons [25] = assay: Drug uptake in anesthetized cynomolgus monkey brain pons after 2.5 mins postinjection; type: ADME, organism-based, Macaca fascicularis; settings: in vivo
[26] = Drug uptake in anesthetized cynomolgus monkey brain frontal lobe after 175 mins postinjection; type: ADME, organism-based, Macaca fascicularis; settings: in vivo
[27] = Drug uptake in anesthetized cynomolgus monkey brain occipital lobe after 4.5 mins postinjection; type: ADME, organism-based, Macaca fascicularis; settings: in vivo, 0.075 h
[28] = Ratio of drug uptake in caudate to cerebellum in anesthetized cynomolgus monkey after 0.5 mins postinjection; type: ADME, organism-based, Macaca fascicularis; settings: in vivo
Putamen [29] = assay: Drug uptake in anesthetized cynomolgus monkey brain putamen after 125 mins postinjection; type: ADME, organism-based, Macaca fascicularis; settings: in vivo
Caudate [30] = assay: Drug uptake in anesthetized cynomolgus monkey brain caudate after 155 mins postinjection; type: ADME, organism-based, Macaca fascicularis, Caudate nucleus; settings: in vivo
[31] = Ratio of drug uptake in pons to cerebellum in anesthetized cynomolgus monkey after 145 mins postinjection; type: ADME, organism-based, Macaca fascicularis; settings: in vivo
Thalamus [32] = assay: Drug uptake in anesthetized cynomolgus monkey brain thalamus after 155 mins postinjection; type: ADME, organism-based, Macaca fascicularis; design: unit not given here; settings: in vivo
[33] = Ratio of drug uptake in occipital lobe to cerebellum in anesthetized cynomolgus monkey after 12.5 mins postinjection; type: ADME, organism-based, Macaca fascicularis; settings: in vivo
[34] = Drug uptake in anesthetized cynomolgus monkey brain frontal lobe after 65 mins postinjection; type: ADME, organism-based, Macaca fascicularis; settings: in vivo
Pons [35] = assay: Drug uptake in anesthetized cynomolgus monkey brain pons after 22.5 mins postinjection; type: ADME, organism-based, Macaca fascicularis; settings: in vivo, 0.375 h
[36] = Drug uptake in anesthetized cynomolgus monkey brain cerebellum after 225 mins postinjection; type: ADME, organism-based, Macaca fascicularis; settings: in vivo, 3.75 h
Pons [37] = assay: Drug uptake in anesthetized cynomolgus monkey brain pons after 6.5 mins postinjection; type: ADME, organism-based, Macaca fascicularis; settings: in vivo
Putamen [38] = assay: Drug uptake in anesthetized cynomolgus monkey brain putamen after 35 mins postinjection; type: ADME, organism-based, Macaca fascicularis; design: unit not given here; settings: in vivo
Putamen [39] = assay: Drug uptake in anesthetized cynomolgus monkey brain putamen after 115 mins postinjection; type: ADME, organism-based, Macaca fascicularis; design: unit not given here; settings: in vivo
Putamen [40] = assay: Drug uptake in anesthetized cynomolgus monkey brain putamen after 0.5 mins postinjection; type: ADME, organism-based, Macaca fascicularis; settings: in vivo
Medulla [41] = assay: Drug uptake in anesthetized cynomolgus monkey brain medulla after 85 mins postinjection; type: ADME, organism-based, Macaca fascicularis; settings: in vivo
Thalamus [42] = assay: Drug uptake in anesthetized cynomolgus monkey brain thalamus after 4.5 mins postinjection; type: ADME, organism-based, Macaca fascicularis; design: unit not given here; settings: in vivo, 0.075 h
[43] = Ratio of drug uptake in pons to cerebellum in anesthetized cynomolgus monkey after 175 mins postinjection; type: ADME, organism-based, Macaca fascicularis; settings: in vivo
[44] = Ratio of drug uptake in medulla to cerebellum in anesthetized cynomolgus monkey after 65 mins postinjection; type: ADME, organism-based, Macaca fascicularis; settings: in vivo
[45] = Drug uptake in anesthetized cynomolgus monkey brain cerebellum after 1.5 mins postinjection; type: ADME, organism-based, Macaca fascicularis; settings: in vivo, 0.025 h
Medulla [46] = assay: Drug uptake in anesthetized cynomolgus monkey brain medulla after 35 mins postinjection; type: ADME, organism-based, Macaca fascicularis; settings: in vivo
Putamen [47] = assay: Drug uptake in anesthetized cynomolgus monkey brain putamen after 55 mins postinjection; type: ADME, organism-based, Macaca fascicularis; design: unit not given here; settings: in vivo
[48] = Ratio of drug uptake in medulla to cerebellum in anesthetized cynomolgus monkey after 95 mins postinjection; type: ADME, organism-based, Macaca fascicularis; settings: in vivo
[49] = Ratio of drug uptake in pons to cerebellum in anesthetized cynomolgus monkey after 105 mins postinjection; type: ADME, organism-based, Macaca fascicularis; settings: in vivo, 1.75 h
Putamen [50] = assay: Drug uptake in anesthetized cynomolgus monkey brain putamen after 3.5 mins postinjection; type: ADME, organism-based, Macaca fascicularis; settings: in vivo
Midbrain [51] = assay: Drug uptake in anesthetized cynomolgus monkey brain midbrain after 12.5 mins postinjection; type: ADME, organism-based, Macaca fascicularis; design: unit not given here; settings: in vivo
Caudate [52] = assay: Drug uptake in anesthetized cynomolgus monkey brain caudate after 215 mins postinjection; type: ADME, organism-based, Macaca fascicularis, Caudate nucleus; settings: in vivo
Pons [53] = assay: Drug uptake in anesthetized cynomolgus monkey brain pons after 115 mins postinjection; type: ADME, organism-based, Macaca fascicularis; settings: in vivo
Midbrain [54] = assay: Drug uptake in anesthetized cynomolgus monkey brain midbrain after 155 mins postinjection; type: ADME, organism-based, Macaca fascicularis; settings: in vivo
[55] = Drug uptake in anesthetized cynomolgus monkey brain cerebellum after 15.5 mins postinjection; type: ADME, organism-based, Macaca fascicularis; settings: in vivo
Pons [56] = assay: Drug uptake in anesthetized cynomolgus monkey brain pons after 185 mins postinjection; type: ADME, organism-based, Macaca fascicularis; settings: in vivo
[57] = Ratio of drug uptake in putamen to cerebellum in anesthetized cynomolgus monkey after 75 mins postinjection; type: ADME, organism-based, Macaca fascicularis; settings: in vivo, 1.25 h
Putamen [58] = assay: Drug uptake in anesthetized cynomolgus monkey brain putamen after 215 mins postinjection; type: ADME, organism-based, Macaca fascicularis; settings: in vivo
Thalamus [59] = assay: Drug uptake in anesthetized cynomolgus monkey brain thalamus after 9.5 mins postinjection; type: ADME, organism-based, Macaca fascicularis; design: unit not given here; settings: in vivo
Thalamus [60] = assay: Drug uptake in anesthetized cynomolgus monkey brain thalamus after 135 mins postinjection; type: ADME, organism-based, Macaca fascicularis; design: unit not given here; settings: in vivo, 2.25 h
Pons [61] = assay: Drug uptake in anesthetized cynomolgus monkey brain pons after 1.5 mins postinjection; type: ADME, organism-based, Macaca fascicularis; settings: in vivo, 0.025 h
Midbrain [62] = assay: Drug uptake in anesthetized cynomolgus monkey brain midbrain after 18.5 mins postinjection; type: ADME, organism-based, Macaca fascicularis; design: unit not given here; settings: in vivo
Caudate [63] = assay: Drug uptake in anesthetized cynomolgus monkey brain caudate after 85 mins postinjection; type: ADME, organism-based, Macaca fascicularis, Caudate nucleus; settings: in vivo
[64] = Ratio of drug uptake in thalamus to cerebellum in anesthetized cynomolgus monkey after 27.5 mins postinjection; type: ADME, organism-based, Macaca fascicularis; settings: in vivo
[65] = Drug uptake in anesthetized cynomolgus monkey brain occipital lobe after 22.5 mins postinjection; type: ADME, organism-based, Macaca fascicularis; settings: in vivo, 0.375 h
Medulla [66] = assay: Drug uptake in anesthetized cynomolgus monkey brain medulla after 12.5 mins postinjection; type: ADME, organism-based, Macaca fascicularis; settings: in vivo
[67] = Ratio of drug uptake in midbrain to cerebellum in anesthetized cynomolgus monkey after 95 mins postinjection; type: ADME, organism-based, Macaca fascicularis; settings: in vivo
[68] = Drug uptake in anesthetized cynomolgus monkey brain occipital lobe after 15.5 mins postinjection; type: ADME, organism-based, Macaca fascicularis; settings: in vivo
[69] = Drug uptake in anesthetized cynomolgus monkey brain occipital lobe after 95 mins postinjection; type: ADME, organism-based, Macaca fascicularis; settings: in vivo

In the case of O=C(OCC[18F])C1C2CCC(CC1c1cccc(/C=C\Br)c1)N2 (centres undefined), the Drug uptake (Putamen [1]) is reported as 4.94, the Drug uptake (Medulla [2]) is reported as 0.08 and the Drug uptake [3] is reported as 2.19. The Drug uptake (Medulla [4]) was 3.04, the Ratio [5] was 1.8 and the Drug uptake (Caudate [6]) was 3.44. The Drug uptake (Thalamus [7]) was 3, the Ratio [8] was 1.8 and the Drug uptake [9] was 1.95. The Drug uptake (Medulla [10]) was 3.64, the Ratio [11] was 1.4 and the Drug uptake (Thalamus [12]) was 2.44. It also gave a Drug uptake [13] of 3.8, a Drug uptake (Pons [14]) of 4.13 and a Drug uptake [15] of 3.55. It also gave a Drug uptake (Caudate [16]) of 4.01, a Drug uptake (Medulla [17]) of 4.73 and a Drug uptake (Medulla [18]) of 4.81. It also gave a Drug uptake (Putamen [19]) of 4.4, a Drug uptake (Thalamus [20]) of 0 and a Drug uptake [21] of 0. It also gave a Drug uptake [22] of 0.06, a Drug uptake (Thalamus [23]) of 2.92 and a Drug uptake [24] of 0.36. It also gave a Drug uptake (Pons [25]) of 0.42, a Drug uptake [26] of 2.19 and a Drug uptake [27] of 1.32. The Ratio [28] was 0.9, the Drug uptake (Putamen [29]) was 4.59 and the Drug uptake (Caudate [30]) was 3.47. The Ratio [31] was 1.8, the Drug uptake (Thalamus [32]) was 3.64 and the Ratio [33] was 0.8. The Drug uptake [34] was 2.94, the Drug uptake (Pons [35]) was 3.81 and the Drug uptake [36] was 1.64. It also gave a Drug uptake (Pons [37]) of 2.79, a Drug uptake (Putamen [38]) of 4.8 and a Drug uptake (Putamen [39]) of 4.68. For the same compound, the Drug uptake (Putamen [40]) was 0.01, the Drug uptake (Medulla [41]) was 4.73 and the Drug uptake (Thalamus [42]) was 1.44. For the same compound, the Ratio [43] was 1.8, the Ratio [44] was 1.4 and the Drug uptake [45] was 0.06. It also gave a Drug uptake (Medulla [46]) of 4.97, a Drug uptake (Putamen [47]) of 5.05 and a Ratio [48] of 1.5. For the same compound, the Ratio [49] was 1.5, the Drug uptake (Putamen [50]) was 1 and the Drug uptake (Midbrain [51]) was 3.83. For the same compound, the Drug uptake (Caudate [52]) was 2.85, the Drug uptake (Pons [53]) was 4.51 and the Drug uptake (Midbrain [54]) was 4.54. The Drug uptake [55] was 3.57, the Drug uptake (Pons [56]) was 3.6 and the Ratio [57] was 1.5. For the same compound, the Drug uptake (Putamen [58]) was 3.24, the Drug uptake (Thalamus [59]) was 2.83 and the Drug uptake (Thalamus [60]) was 4.03. It also gave a Drug uptake (Pons [61]) of 0.09, a Drug uptake (Midbrain [62]) of 4.16 and a Drug uptake (Caudate [63]) of 4.06. It also gave a Ratio [64] of 1, a Drug uptake [65] of 3.14 and a Drug uptake (Medulla [66]) of 4.2. The Ratio [67] was 1.6, the Drug uptake [68] was 2.99 and the Drug uptake [69] was 3.16.
